Read-outs that look alike come from different tables or passages of the source.
What was measured:
Molm13 cell = experiment: Anti-proliferation assay in Molm13 cell; type: cell-based, human; details: 6 days, cell titer glow, read-out: (b) IC50 anti proliferative assay in molm13 cell
Procedure: Anti-Proliferation Assay in Molm13 Cell
After cell seeding, a compound of the present invention was added to the cell media (in concentrations ranging from 0 to 100 μM, 3× dilution series). After 6 days, 100 ul/well cell titer glow (Promega, cat#G7573) was added into the cell culture, and luminerence was read on Envision (Pelkin Elmer) to determine the viable cells. The percentage inhibition was calculated against the samples treated with DMSO.

full-length LSD1 = target: T1, full-length LSD1 (Homo sapiens, UniProt O60341); experiment: FL-LSD1 LC-MS assay; type: biochemical; details: 0.4 nM FL-LSD1, 0.25 μM FAD, 0.5 μM H3K4me1 peptide, 60 min; read-out: (a) IC50 LC-MS Qualified assay
T1 construct: the full-length LSD1 and 0.5 μM FAD in reaction buffer
Procedure: Representative compounds of the present invention were serially and separately diluted 3-fold in DMSO to obtain a total of twelve concentrations. […] A 5 μL solution of 1 μM of the peptide substrate H3K4me1 (histone H3[1-21]-biotin) in reaction buffer was added to each initiate reaction. […] The conversion ratio of H3K4me1 substrate to the H3K4me0 product was calculated by dividing the peak area of the H3K4me0 peptide by the total peak area of all those two peptides on the assumption that the ionization efficiency of those peptides is the same. The data were then fit to a dose response equation using the program Helios to get the IC50 values of the test compound.

CD11b = CD11b FACS assay; type: cell-based; details: Homo sapiens, THP-1; Thp1 cell, 96 hrs; read-out: (c) IC50 CD11b FACS assay
Procedure: Representative compounds of the present invention were serially and separately diluted 5-fold in DMSO to obtain a total of 6 concentrations. Then the compounds were added to Thp1 cell cultured in 96-well round bottom plate (Costar, Cat#3099) at 1:1000 dilution to obtain the highest concentration of 10 μM. The cells were further cultured for 96 hrs before FACS procedure.
FACS protocol: FACS was performed using standard flowcytometry. Cell was collected and washed with FACS buffer twice (2% heat inactivated FBS in PBS) in 96-well plate, and stained with antibody against CD11b, or isotype control, then washed with FACS buffer for 3 times before reading on Guava 8HT (Merck Millipore) Results were analyzed using Flowjo, and mean fluoreance was calculated and normalized to the cells treated with DMSO. The fold value were then analyzed via Graphpad Prism and fit to a dose response curve to get IC50 value of the test compound. Antibodies for FACS: PE mouse IgG1 k chain (BD Bioscience, #555749), PE mouse anti human CD11b (BD Bioscience, #555388)

| IC50 (Molm13 cell; Homo sapiens, MOLM-13, 144 h) [nM] | IC50 (full-length LSD1) [nM] | IC50 (Molm13 cell) [nM] | IC50 (CD11b) [nM] | Compound |
| --- | --- | --- | --- | --- |
| 390 | 24 |  |  | Cc1c(N)cccc1-c1cn(C2CCC(O)C2)c2ccc(C#N)cc12 (racemic) [Example 80, Trans-3-(3-amino-2-methylphenyl)-1-(3-hydroxycyclopentyl)-1H-indole-5-carbonitrile] |
| 76 | 15 |  |  | Cc1cc2c(cc1C#N)c(-c1cncc(N)c1C)cn2C1CCC(O)C1 (single isomer, unassigned) [Example 87, Cis-3-(5-amino-4-methylpyridin-3-yl)-1-(3-hydroxycyclopentyl)-6-methyl-1H-indole-5-carbonitrile] |
|  | 15 | 90 |  | Cc1cc2c(cc1C#N)c(-c1cncc(N)c1C)cn2C1CCC(O)C1 (single isomer, unassigned) [Example 88, Trans-3-(5-amino-4-methylpyridin-3-yl)-1-(3-hydroxycyclopentyl)-6-methyl-1H-indole-5-carbonitrile] |
| 123 | 3 |  | 315 | COc1ccc(-n2cc(-c3cccc(N)c3C)c3cc(C#N)c(C)cc32)cc1 [Example 65, 3-(3-amino-2-methylphenyl)-1-(4-methoxyphenyl)-6-methyl-1H-indole-5-carbonitrile] |
| 51 | 3 |  | 801 | COc1ccc(-n2cc(-c3cncc(N)c3C)c3cc(C#N)c(C)cc32)cc1 [Example 71, 3-(5-amino-4-methylpyridin-3-yl)-1-(4-methoxyphenyl)-6-methyl-1H-indole-5-carbonitrile] |
| 270 | 60 |  |  | Cc1c(N)cccc1-c1cn(C2CCCC(O)C2)c2ccc(C#N)cc12 (stereo not drawn) [Example 83, Trans-3-(3-amino-2-methylphenyl)-1-(3-hydroxycyclohexyl)-1H-indole-5-carbonitrile] |
| 73 | 16 |  |  | Cc1cc2c(cc1C#N)c(-c1cncc(N)c1C)cn2[C@H]1CC[C@H](O)CC1 [Example 94, Trans-3-(5-amino-4-methylpyridin-3-yl)-1-(4-hydroxycyclohexyl)-6-methyl-1H-indole-5-carbonitrile] |
| 926 | 14 |  |  | Cc1cc2c(cc1C#N)c(-c1cccc(N)c1C)cn2C1CCNCC1 [Example 97, 3-(3-amino-2-methylphenyl)-6-methyl-1-(piperidin-4-yl)-1H-indole-5-carbonitrile] |

| Compound | IC50 (Molm13 cell; Homo sapiens, MOLM-13, 144 h) [nM] | IC50 (full-length LSD1) [nM] | IC50 (Molm13 cell) [nM] | IC50 (CD11b) [nM] |
| --- | --- | --- | --- | --- |
| CN[C@H]1CC[C@H](n2cc(-c3cccc(N)c3C)c3cc(C#N)c(C)cc32)CC1 [Example 78, Trans-3-(3-amino-2-methylphenyl)-6-methyl-1-(4-(methylamino)cyclohexyl)-1H-indole-5-carbonitrile] | 29 |  |  |  |
| Cc1cc2c(cc1C#N)c(-c1cccc(N)c1C)cn2[C@H]1CC[C@H](O)CC1 [Example 93, Trans-3-(3-amino-2-methylphenyl)-1-(4-hydroxycyclohexyl)-6-methyl-1H-indole-5-carbonitrile] |  |  |  | 73 |
| Cc1cc2c(cc1C#N)c(-c1cccc(N)c1C)cn2[C@H]1CC[C@@H](O)CC1 [Example 95, Cis-3-(3-amino-2-methylphenyl)-1-(4-hydroxycyclohexyl)-6-methyl-1H-indole-5-carbonitrile] | 49 |  |  |  |
| Cc1cc2c(cc1C#N)c(-c1cccc(N)c1C)cn2[C@H]1C[C@H](O)C1 [Example 100, Trans-3-(3-amino-2-methylphenyl)-1-(3-hydroxycyclobutyl)-6-methyl-1H-indole-5-carbonitrile] | 48 |  |  |  |
